What all share (test): DTP human tumour cell line panel, 48 h
Assay [1] has as its system HCT-15 colon.
Assay [2] deals with OVCAR-4 ovarian.
Assay [3] deals with SR leukemia.
Assay [4] relates to K-562 leukemia.
Assay [5] concerns RPMI-8226 leukemia.
Assay [6] relates to DU-145 prostate.
The test system of assay [7] is OVCAR-5 ovarian.
Assay [8] has as its system A498 renal.
Assay [9] concerns KM12 colon.
In assay [10] the test system is MDA-N.

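Assay format: 96-well plates, 48-hour exposure. GI50 marks 50% less growth. TGI: concentration producing complete growth inhibition.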

Take `CN(C)CCNC(=O)c1cccc2nc3c(C(=O)NCCN(C)C)cccc3nc12`: the TGI in [1] was 16.5 µM; in [2] it was 2.24 µM; in assay [3], 3.6 µM; in [4], 12.5 µM; in [5], > 23.6 µM; in [6], 12.8 µM. Moreover, the TGI in assay [7] stood at 13.6 µM; in assay [8], 4.61 µM; in [9] it was 8.82 µM.

Take `COC(=O)[C@]1(c2ccc(N(C)C)cc2OC)C[C@@H]2CCCN(CCc3c1[nH]c1ccccc31)C2`: the TGI in assay [1] was 46.6 µM; in [2] it was 28.2 µM; in assay [4] it was 37.7 µM; in assay [5] it was 63.2 µM; in [7], > 100 µM; in assay [8] it was 47 µM. The TGI in [9] is > 55.9 µM.

As to `CCOC(=O)[C@@]1(C)CC(O)C(=O)N1C` (stereo partly specified), the TGI in [1], in assay [2], in [3], in assay [5], in assay [6] and in assay [7] was > 100 µM each time. Besides, the TGI in assay [9] was > 100 µM.

For `Cc1cc(OCCOCCC(F)(F)P(=O)(O)O)ccc1CCc1cnc2c(N)nc3cc(CCC(=O)O)ccc3c2c1`, the GI50 in assay [1], in [2], in assay [3], in assay [4], in assay [5] and in [6] was > 100 µM each time. The values for the GI50 in assay [7], in [8] and in assay [9] were > 100 µM, 26.2 µM and > 100 µM, respectively. The TGI in assay [1], in assay [2], in assay [3], in assay [4], in assay [5] and in [6] was > 100 µM in each case. For the same compound, the TGI in assay [7], in [8] and in assay [9] was > 100 µM in each case.

Take `CCCCCCCCP(=O)(O)OP(=O)(O)OCC1OC(n2ccc(N)nc2=O)C(O)C1O` (stereo unspecified): the concentration for total growth inhibition (TGI) in assay [1], in assay [2], in assay [4], in assay [5], in assay [7] and in [10] was > 100 µM throughout. For the same compound, the TGI in assay [8] and in assay [9] was > 100 µM in each case.

Regarding `CN(CCCNC(=O)c1nn(C)c2c1Cc1ccccc1-2)CCCNC(=O)c1nn(C)c2c1Cc1ccccc1-2`, the total growth inhibition concentration (TGI) was 40.4 µM in [1]; 32.5 µM in [2]; > 100 µM in assay [3]; 25.6 µM in assay [4]; 35.9 µM in [5]; 32.4 µM in assay [6]. In addition, the TGI in assay [7] was 40.8 µM; in assay [8] it was 31.7 µM; in [9], 35.4 µM.

Consider `COC(=O)[C@]1(c2cc3ccccc3[nH]2)CC2CN(C(=O)OCc3ccccc3)C1CC2=O` (stereo partly specified), for which the TGI was > 100 µM in assay [1]; > 100 µM in [2]; 45.1 µM in assay [4]; 38.9 µM in [5]; > 100 µM in assay [6]; 27.9 µM in assay [7]. For the same compound, the results for the concentration for total growth inhibition (TGI) in assay [10], in assay [8] and in [9] were > 100 µM, 42.9 µM and > 100 µM, respectively.

For the compound `COc1cc(C2C3=C(CCCC3=O)N(c3ccc(C)cc3)C3=C2C(=O)CCC3)c([N+](=O)[O-])cc1OC`, the TGI in assay [1], in [2], in assay [3], in assay [4], in [5] and in assay [7] was > 100 µM in each case. The TGI in assay [8] and in assay [9] was > 100 µM each time.

For the compound `CC(=O)O[C@H]1C[C@@H](OC(C)=O)[C@@](C)(O)[C@@H]2[C@@H](OC(C)=O)[C@@]3(O)[C@H](/C=C(/CO)[C@H]4O[C@H]4[C@@H](OC(C)=O)[C@@]12C)OC(=O)[C@@H]3C`, the concentration for total growth inhibition (TGI) in [1] was > 25 µM; in assay [2], > 25 µM; in assay [4] it was > 25 µM; in [5], > 25 µM; in assay [6], 12 µM; in [7], > 25 µM. For the same compound, the total growth inhibition concentration (TGI) in assay [10] was 7.63 µM; in assay [8] it was > 25 µM; in assay [9], > 25 µM.

In the case of `COC(=O)CNC(=O)CCC(C)[C@H]1CCC2C3C(C[C@H](OC(C)=O)[C@@]21C)[C@@]1(C)CCC2(C[C@H]1C[C@H]3OC(C)=O)OOC1(CC[C@]3(C)C4C[C@H](OC(C)=O)[C@@]5(C)C(CC[C@@H]5C(C)CCC(=O)NCC(=O)OC)C4[C@H](OC(C)=O)C[C@@H]3C1)OO2` (stereo partly specified), the TGI is 5.42 µM in assay [1]; 13.3 µM in [2]; 4.63 µM in [4]; 9.96 µM in assay [7]; > 50 µM in [10]; 39.8 µM in assay [8]. This compound showed a TGI in assay [9] of 41.2 µM.

Regarding `N#Cc1cc(Sc2ccc(N)c(C#N)c2)ccc1N`, the TGI was 38.9 µM in assay [1]; 98.8 µM in assay [2]; 60.2 µM in assay [4]; 59.2 µM in assay [5]; 89.6 µM in [6]; > 100 µM in assay [7]. The total growth inhibition concentration (TGI) in assay [10] was 24.2 µM; in assay [8], > 100 µM; in assay [9], 24.9 µM.

As to `Cc1cc(S(=O)(=O)Nc2nncn2-c2ccc(Cl)cc2)c(S)cc1Cl`, the TGI in assay [1], in assay [2], in assay [4], in assay [5], in assay [6] and in [7] was > 10 µM each time. For the same compound, the concentration for total growth inhibition (TGI) in [10], in assay [8] and in assay [9] was > 10 µM in each case.

For the compound `COc1cc2c(cc1Oc1c(Oc3c(O)c(OC)cc4c3C(CC(C)C)N(C)CC4)c(OC)cc3c1C(CC(C)C)N(C)CC3)C(CC(C)C)N(C)CC2` (stereo unspecified), the TGI in assay [1] turned out to be 12.9 µM; in assay [2], 8.15 µM; in assay [4], 5.65 µM; in [5], 10.4 µM; in assay [7], 17.7 µM; in assay [8] it was 0.304 µM. Moreover, the TGI in assay [9] was 3.78 µM.

As to `O=C(Nc1ccccc1Cl)c1ccc([N+](=O)[O-])cc1`, the TGI in assay [1], in [4], in assay [5], in assay [8] and in [9] was > 100 µM in each case.

These data come from PubChem BioAssay (NCI).
